Data from PMC4423777, “Ciprofloxacin Derivatives Affect Parasite Cell Division and Increase the Survival of Mice Infected with Toxoplasma gondii” (PLoS ONE, 2015).
Where “and” joins values, the source holds several entries; their conditions need not be identical. Equal entries are not always repeated. Entries after “also recorded” stand apart in the source; their conditions may differ. Where two headings read alike, the source gives them in different places.

Key:
T. gondii tachyzoites [1] = assay: Parasites per vacuole in LLC-MK2 cells after 6 h treatment (light microscopy); type: cell-based, Toxoplasma gondii
Method: For the treatment of T. gondii tachyzoites with Cipro derivatives in vitro, 5x10^5 LLC-MK2 cells (ATCC CCL7, Rockville, MD/EUA) in RPMI medium were plated on coverslips inside 24-well tissue culture plates, and allowed to settle at 37°C (5% CO2) for ~24h. Then, cells were infected with parasites (freshly-harvested from infected mice) at a 10:1 ratio of parasites to host cells. […] Then, coverslips were fixed with Bouin and stained with panoptic (solutions 2 and 3 of the ‘Panotico rápido’ kit, from Laborclin Ltda., Paraná, Brazil). Alternatively, cultures were washed three times with 0.5 ml of medium (to remove test compounds) and incubated for an additional 18 h in medium without drugs, before fixing and staining. The number of parasites per vacuole was scored by direct light microscopy examination. Three independent experiments were performed for each treatment condition, and the results were analyzed by two-way ANOVA (using GraphPad Prism 5.0).

[2] = tested on: Cryptosporidium parvum sporozoites; assay: Cryptosporidium parvum in vitro growth assay in MDBK cells; type: cell-based
Method: C. parvum oocysts obtained from infected neonatal calves (Institut National de la Recherche Agronomique-INRA, Nouzilly, France) were purified as previously described and stored in PBS at 4°C. Madin Darby bovine kidney cell line (MDBK; ECACC # 88081201, Sophia Antipolis, France) was cultured at 37°C in a 5% CO2 moist atmosphere in growth medium: RPMI 1640 (Sigma, L’Isle d’Abeau, France) supplemented with 25 mM HEPES (Sigma H-3375), 200 U/ml of penicillin, 200 μg/ml of streptomycin (Sigma P-0781) and 10% fetal calf serum (FCS; Dutscher, Brumath, France).
Prior to infection, MDBK cells were trypsinized and seeded in just one well of a 24-well plate in 2 ml of RPMI 1640 with 1% FCS. Aseptic oocysts were prepared for excystation by incubation in RPMI-1640, pH 2 (for 30 min at 37°C). Then, oocytes were washed in RPMI 1640 with 1% FCS and allowed to interact with MDBK cells for 1.5 h at 37°C in a 5% CO2 atmosphere. After 3 washes by centrifugation at 160 g in RPMI 1640 to remove non-excysted oocysts and shells, infected cells were plated in 24-well plates containing glass coverslips, in 500 μl/well of RPMI/1%FCS, and allowed to settle for 24 h. The infected cells were subsequently washed 3 times with RPMI 1640 and allowed to grow for a further 5 h (in 500 μl/well of RPMI/1% FCS). 500 μl of medium containing twice-concentrated Cipro derivatives were then added in triplicates in an equal volume of growth medium and left for another 24 h. Cells were fixed in 100% methanol and stained with 20% Giemsa and 1% Alcian blue as previously described, and the effects against sporozoite proliferation were evaluated by examining at least 1000 cells/coverslip in a light microscope, using an oil immersion X100 objective.

T. gondii tachyzoites [3] = assay: Immunofluorescence microscopy of treated tachyzoites in LLC-MK2 cells (cell division arrest, basal IMC gap); type: cell-based, Toxoplasma gondii; settings: for Basal IMC length mean: untreated control 0.65 ± 0.11 μm; for Effect on parasite division, anti-IMC1 labeling: 1 and 5 μM Et-Cipro and Adam-Cipro, 10 μM Ph-Cipro
Method: For Cipro assay, cells were infected in a ratio of 5:1 parasites per host cell and treated for 24, 48 and 72h. After treatment, infected cells were fixed in 3.7% freshly-prepared formaldehyde, permeabilized with 0.5% Triton X-100 for 15 min, and blocked with 3% bovine serum albumin (BSA) in PBS at pH 7.4 and room temperature for 1 h. All antibody incubations were performed in 3% BSA in PBS, for 1h, at room temperature. The following primary antibodies were used: anti-SAG1 (kindly provided by Dr. John Boothroyd, Stanford University School of Medicine, USA), at a dilution of 1:1000; anti-HSP60 and anti-Morn1 (kindly provided by Dr. Boris Striepen, University of Georgia, USA), diluted to 1:2000 and 1:100, respectively; and anti-IMC1 (kindly provided by Dr. Gary Ward, University of Vermont, USA), diluted to 1:1000. The secondary antibodies used here were anti-mouse/rabbit coupled to Alexa 488 or 546 (Molecular Probes). Sytox green (Molecular Probes) and DAPI (Sigma-Aldrich) were used to label the DNA. After labeling, the coverslips were mounted onto slides using Prolong gold (Life Technologies), and samples were examined on a TCSSP5 Leica or Zeiss LSM710 laser scanning confocal microscopes.

T. gondii [4] = assay: Plaque assay in human foreskin fibroblasts, 10 days treatment; type: cell-based, Toxoplasma gondii; settings: HFF
Method: For plaque assay, 6-well tissue culture plates were seeded with human foreskin fibroblasts (HFF; ATCC). HFF was grown in high glucose Dulbeco’s Modified Eagle Medium supplemented with 10% FBS, 2mM L-glutamine, 100 U/ml penicillin, and 100 μg/ml streptomycin and maintained at 37°C with 5% CO2. After cultures reached confluence each well was infected with 10^4 of T. gondii. Infected cultures were treated for 10 days with Cipro derivatives, Cipro or left untreated.

[5] = tested on: T. gondii tachyzoites (RH strain); assay: Survival of mice acutely infected with T. gondii, 7-day oral treatment; type: in vivo, Toxoplasma gondii; settings: 7 days, from 24 h post-infection
Method: In this study, we used tachyzoite forms the RH strain of Toxoplasma gondii, obtained from the peritoneal cavity of mice 2 days after infection. […] Drinking water and food were given ad libitum.
To determine compound efficacy against T. gondii in vivo, female Swiss mice were infected intraperitoneally (i.p.) with 5x10^3 T. gondii tachyzoites and treated with test compounds from 24 h post-infection. […] Mice were treated once daily for 7 days, by oral gavage, and mouse mortality was monitored once a day for a period of 60 days. During survival studies, mice were not inflicted to any suffering condition and mice presenting morbidity symptoms (shivering, ruffled hair and immobility) were euthanized by CO2 asphyxiation to minimize animal suffering, and then mortality was scored. Survival curves were calculated using the Kaplan and Meier method, and compared using the log-rank (Mantel-Cox) test, in GraphPad Prism 5.0 (GraphPad Software Inc.) and P<0.05 was considered statistically significant.

T. gondii tachyzoites [6] = settings: read-out: IC50 against T. gondii in vitro; after 48 h of treatment; cited from earlier work
[7] = for Serum levels of creatinine kinase (in words): single oral dose, 48 h; for Mouse weight (g) After 48 h / Mouse weight (g) Initial: uninfected Swiss mice; for Mouse weight (g) Initial: before dosing; for Serum urea: reference 18–29 mg/dL; for Serum creatinine kinase: reference ≤ 1070 U/L
Method: Acute toxicity analysis was performed using non-infected female Swiss mice (19–21 g).

T. gondii [8] = tested on: T. gondii; design: method as in PMID 8843293, PMID 11120943; settings: read-out: IC50 against T. gondii, cited from earlier work

| SMILES | Parasite proliferation in plaque assay (T. gondii [4]; 10 μM) | % inhibition of sporozoites growth ([2]; 12.5 μM, 24 h, MDBK cells) [%] | % inhibition of sporozoites growth ([2]; 25 μM, 24 h, MDBK cells) [%] | Effect on parasite division, anti-IMC1 labeling (T. gondii tachyzoites [3]; 24 h) | IC50 (T. gondii tachyzoites [6]) [µM] | Mouse weight (g) After 48 h ([7]; single oral dose 25 mg/kg) [g] | Mouse weight (g) Initial ([7]; single oral dose 25 mg/kg) [g] | Serum urea ([7]; single oral dose 25 mg/kg) [mg/dL] | Mouse weight (g) After 48 h ([7]; single oral dose 50 mg/kg) [g] | Mouse weight (g) Initial ([7]; single oral dose 50 mg/kg) [g] | Serum urea ([7]; single oral dose 50 mg/kg) [mg/dL] | Serum creatinine kinase ([7]; single oral dose 50 mg/kg) [U/L] | Mouse weight (g) After 48 h ([7]; single oral dose 100 mg/kg) [g] | Mouse weight (g) Initial ([7]; single oral dose 100 mg/kg) [g] | Serum urea ([7]; single oral dose 100 mg/kg) [mg/dL] | Mouse weight (g) After 48 h ([7]; single oral dose 200 mg/kg) [g] | Mouse weight (g) Initial ([7]; single oral dose 200 mg/kg) [g] | Serum urea ([7]; single oral dose 200 mg/kg) [mg/dL] | Serum creatinine kinase ([7]; single oral dose 200 mg/kg) [U/L] | other results |
| --- | --- | --- | --- | --- | --- | --- | --- | --- | --- | --- | --- | --- | --- | --- | --- | --- | --- | --- | --- | --- |
| O=C(O)c1cn(C2CC2)c2cc(N3CCNCC3)c(F)cc2c1=O [Cipro, ciprofloxacin] | significant decrease in parasite proliferation; also recorded: drastic reduction on parasite proliferation | – | – | – | – | – | – | – | – | – | – | – | – | – | – | – | – | – | – | Vacuoles containing just one parasite (T. gondii tachyzoites [1]; 20 μM, 6 h treatment (7 h total infection), LLC-MK2): 54%; Parasitophorous vacuoles having just one parasite (T. gondii tachyzoites [1]; 50 μM, 6 h treatment (7 h total infection), LLC-MK2): 68%; IC50 ([2]; Cryptosporidium parvum, MDBK, after 24h, estimated, read-out: IC50 against C. parvum): 39.2 µM; inhibition at 12.5 µM ([2]; Cryptosporidium parvum, 12.5 μM, 24 h, MDBK cells): 19.5 ± 1.1%; inhibition at 25 µM ([2]; Cryptosporidium parvum, 25 μM, 24 h, MDBK cells): 46.1 ± 2.9%; inhibition at 50 µM ([2]; Cryptosporidium parvum, 50 μM, 24 h, MDBK cells): 53.4 ± 2.51%; Alteration of tachyzoites (in words) (T. gondii tachyzoites [3]; 20 μM, 24 h): not induced any significant alteration; Parasitophorous vacuoles containing parasites presenting cell division arrest (T. gondii tachyzoites [3]; 20 μM, 48 h): 24%; Parasitophorous vacuoles containing parasites presenting cell division arrest (T. gondii tachyzoites [3]; 20 μM, 72 h): 26%; Parasite proliferation in plaque assay (T. gondii [4]; 20 / 20 μM): No growth; also recorded: no plaques were observed |
| CCOC(=O)c1cn(C2CC2)c2cc(N3CCNCC3)c(F)cc2c1=O [Et-Cipro] | – | 20.3 ± 10.1 | 32.6 ± 7.6 | parasite cell division arrest | 0.42 | 22.25 | 19.87 | 55.8 | 20.92 | 19.15 | 51.2 | 182 | 22.27 | 20.71 | 55.1 | 22.17 | 20.0 | 49.3 | 583 | Vacuoles containing just one parasite (T. gondii tachyzoites [1]; 2 μM, 6 h treatment (7 h total infection), LLC-MK2): 57%; Concentration required to affect parasite division significantly (T. gondii tachyzoites [1]; 6 h treatment): > 2 µM; Increase in activity (cell division inhibition) compared with the original compound Cipro (T. gondii tachyzoites [1]; 6 h treatment, concentrations with similar effect compared): 10 fold; % inhibition of sporozoites growth ([2]; 50 μM, 24 h, MDBK cells): 36% and 36.43 ± 9.76%; Basal IMC length mean (T. gondii tachyzoites [3]; 1 μM, 24 h): 0.76 ± 0.20 μm; Parasite morphology, anti-SAG1 / Sytox green labeling (T. gondii tachyzoites [3]; 5 μM, 24 h): formation of large multinucleated parasites; Basal IMC length mean (T. gondii tachyzoites [3]; 5 μM, 24 h): 0.80 ± 0.26 μm; Survival of T. gondii-infected mice, alive 60 days post-infection ([5]; 50 mg/kg/day oral): 18%; Serum levels of creatinine kinase (in words) ([7]; higher doses): normal; Serum creatinine kinase ([7]; single oral dose 25 mg/kg): 1727 U/L; Serum creatinine kinase ([7]; single oral dose 100 mg/kg): 578 U/L; Parasite proliferation in plaque assay (T. gondii [4]; 5 μM): No growth; also recorded: no plaques were observed |
| CCOC(=O)c1cn(C2CC2)c2cc(N3CCN(Cc4ccccc4)CC3)c(F)cc2c1=O [Ph-Cipro] | No growth; also recorded: no plaques were observed | 33.6 ± 11.6 | 42.6 ± 14.6 | parasite cell division arrest | 1.24 | 23.85 | 21.21 | 49.2 | 22.72 | 19.30 | 50.6 | 506 | 21.94 | 19.21 | 52.8 | 22.20 | 19.93 | 46.2 | 1541 | Basal IMC length mean (T. gondii tachyzoites [3]; 10 μM, 24 h): 0.73 ± 0.24 μm; Survival of T. gondii-infected mice, alive 60 days post-infection ([5]; 100 mg/kg/day oral): 13%; Survival of T. gondii-infected mice, alive 60 days post-infection ([5]; 150 mg/kg/day oral): 18%; Serum levels of creatinine kinase (in words) ([7]; 200 mg/kg): slightly altered; Toxicity to mice (in words) ([7]; high doses (200mg/kg)): mild toxicity |
| COc1c(N2CCNC(C)C2)c(F)cc2c(=O)c(C(=O)O)cn(C3CC3)c12 (stereo not shown) [gatifloxacin] | – | – | – | – | – | – | – | – | – | – | – | – | – | – | – | – | – | – | – | IC50 (T. gondii [8]; HFF primary cell culture after 48h): 0.52 µM |
| N[C@@H]1[C@H]2CN(c3nc4c(cc3F)c(=O)c(C(=O)O)cn4-c3ccc(F)cc3F)C[C@@H]12 [trovafloxacin] | – | – | – | – | – | – | – | – | – | – | – | – | – | – | – | – | – | – | – | IC50 (T. gondii [8]; L929 cell line): 1.37 µM |
